Measured values taken from publication PMC11740726 (PNAS Nexus, 2025).
Like-named read-outs stand apart in the source and are kept apart here.

How the values were obtained:
TA1537 = conditions: Salmonella typhimurium
SARS-CoV-2^WK-521 [1] = assay: microbe, parasite or virus in culture; type: cell-based
in vitro = conditions: African green monkey
SARS-CoV-2 M^pro = SARS-CoV-2 M^pro (Severe acute respiratory syndrome coronavirus 2, UniProt P0DTD1); assay: SARS-CoV-2 M^pro enzyme assay (cell-free, fluorogenic substrate); type: biochemical; conditions: authentic M^pro; mean ± 1 SD, three assays
SARS-CoV-2^BQ.1.1 = assay: microbe, parasite or virus in culture; type: cell-based; conditions: Severe acute respiratory syndrome coronavirus 2, read-out: SARS-CoV-2^BQ.1.1 in HeLa^hACE2-TMPRSS2 cells EC50
[2] = test system: four Salmonella typhimurium strains (TA100, TA1535, TA98, TA1537) and one Escherichia coli strain (WP2 uvrA)
[3] = test system: primary human nasal epithelial cells
SARS-CoV-2^XBB1.5 = test system: SARS-CoV-2^XBB1.5; set-up: species or system B6.Cg-Tg(K18-hACE2)2-Prlmn/J-transgenic mice; conditions: mouse, in vivo
human cathepsin L = human cathepsin L (Homo sapiens, UniProt P07711); assay: biochemical
human cathepsin L, sequence (P07711 114-333): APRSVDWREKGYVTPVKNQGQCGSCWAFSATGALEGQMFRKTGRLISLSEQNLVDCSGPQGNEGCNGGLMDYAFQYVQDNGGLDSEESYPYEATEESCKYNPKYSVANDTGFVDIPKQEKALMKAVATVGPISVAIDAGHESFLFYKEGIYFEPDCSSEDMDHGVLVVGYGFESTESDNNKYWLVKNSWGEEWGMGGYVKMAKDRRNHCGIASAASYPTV

[4] = test system: SARS-CoV-2^Omicron EG.5.1; assay: microbe, parasite or virus in culture; type: cell-based; conditions: Severe acute respiratory syndrome coronavirus 2, read-out: anti-SARS-CoV-2^Omicron EG.5.1 activity EC50 in primary human nasal epithelial (HNEp) cells
SARS-CoV-2^WK-521 [5] = assay: microbe, parasite or virus in culture; type: cell-based; conditions: Severe acute respiratory syndrome coronavirus 2, read-out: EC50, SARS-CoV-2^WK-521, HeLa^hACE2-TMPRSS2
in vivo [6] = conditions: PXB (human liver-chimeric), mouse, po, 10 mg/kg
in vivo [7] = conditions: ICR, mouse, po, 10 mg/kg
human calpain = type: biochemical
[8] = test system: SARS-CoV-2 Omicron XBB.1.5; assay: microbe, parasite or virus in culture; type: cell-based; conditions: for EC50: Severe acute respiratory syndrome coronavirus 2, read-out: EC50 in the presence of 1 mg/mL human AAG
WP2 uvrA = conditions: Escherichia coli
TA98 = conditions: Salmonella typhimurium
TA100 = conditions: Salmonella typhimurium
[9] = Severe acute respiratory syndrome coronavirus 2, Vero C1008, read-out: SARS-CoV-2^WK-521 in VeroE6 cells EC50
[10] = read-out: EC50 against SARS-CoV-2^WK-521 in VeroE6 cells in the presence of CP100356
[11] = Severe acute respiratory syndrome coronavirus 2, Vero C1008, read-out: EC50, SARS-CoV-2^WK-521, VeroE6
[12] = Severe acute respiratory syndrome coronavirus 2, Vero C1008, read-out: EC50, SARS-CoV-2^WK-521, VeroE6 +2μM CP-100356

For COc1ccc2nc3cc(Cl)ccc3c(NCCCNCCCl)c2c1 [ICR-191, 2-Methoxy-6-chloro-9-[3-(2-chloroethyl)-aminopropylamino] acridine·2HCl], the “Number of colonies / plate (positive control)” value (“Number of colonies / plate” below) (TA1537) was 37.3± 2.5 colonies / plate.

CC(C)(C)[C@H](NC(=O)C(F)(F)F)C(=O)N1C[C@H]2[C@@H]([C@H]1C(=O)N[C@@H](C[C@@H]1CCNC1=O)C(=O)c1nc3c(F)cccc3s1)C2(C)C [TKB245] showed an EC50 (SARS-CoV-2^WK-521 [1]; [9]) of 20 ± 7 nM, an EC50 (SARS-CoV-2^WK-521 [1]; [10]) of 3.5 nM and a CC50 (in vitro) greater than 100000 nM. For the same molecule, the “intracellular concentrations in VeroE6 cells” value (VeroE6 cells) was “higher than those of nirmatrelvir”.

CC(C)(C)[C@H](NC(=O)C(F)(F)F)C(=O)N1C[C@H]2[C@@H]([C@H]1C(=O)N[C@@H](C[C@@H]1CCNC1=O)C(=O)c1nc3ccc(F)cc3s1)C2(C)C [TKB273] gave an EC50 (SARS-CoV-2^WK-521 [1]; [9]) of 43 ± 24 nM, an IC50 (SARS-CoV-2 M^pro) of 8.9 ± 4.1 nM and a CC50 at 3 days (in vitro) greater than 100000 nM. For the same molecule, the EC50 (SARS-CoV-2^BQ.1.1) was 114 ± 93 nM.

With CC(C)(C)[C@H](NC(=O)C(F)(F)F)C(=O)N1C[C@H]2[C@@H]([C@H]1C(=O)N[C@@H](C[C@@H]1CCNC1=O)C(=O)c1nc3cc(F)ccc3s1)C2(C)C [TKB272] the EC50 (SARS-CoV-2^WK-521 [1]; [11]) was 15.8 ± 8.9 nM, the EC50 (SARS-CoV-2^WK-521 [1]; [12]) was 1 ± 1 nM and the EC50 (SARS-CoV-2^WK-521 [1]; [9]) was 7 ± 1 nM. For the same molecule, the EC50 (SARS-CoV-2^WK-521 [1]; [10]) was 0.4 nM, the “genotoxicity in the micro-Ames test” value [2] was “no apparent genotoxicity” and the “growth inhibition of bacterial strains in µAmes test” value [2] was “did not inhibit the growth of bacterial strains employed”. For the same molecule, the “increase of revertant colonies compared with negative control in µAmes test” value [2] was “did not increase the number of revertant colonies more than twice”, the “intracellular concentrations in human primary nasal epithelial cells” value [3] was “comparable to nirmatrelvir” and the “Lungs Virus titer” value (SARS-CoV-2^XBB1.5) was 5.1 Log10(PFU/g). The “Nasal turbinates Virus titer” value (SARS-CoV-2^XBB1.5) was 3.2 Log10(PFU/g), the CC50 (in vitro) was 98000 ± 2100 nM and the EC50 (SARS-CoV-2^BQ.1.1) was 2.6 ± 1 nM. The IC50 (human cathepsin L) was greater than 16000 nM, the “inhibition of human cathepsin L (target specificity)” value (human cathepsin L) was “none of the human cysteine enzymes, cathepsin L or calpain, were appreciably inhibited” and the EC50 [4] was 31 nM. For the same molecule, the “intracellular concentrations in HeLa^hACE2-TMPRSS2 cells” value (HeLa^hACE2-TMPRSS2 cells) was “greater than those of nirmatrelvir”, the EC50 (SARS-CoV-2^WK-521 [5]) was 2.9 nM and the half-life (in vivo [6]) was 3.12 h. For the same molecule, the half-life (in vivo [7]) was 3.37 h, the IC50 (human calpain) was greater than 2000 nM and the “inhibition of human calpain (target specificity)” value (human calpain) was “none of the human cysteine enzymes, cathepsin L or calpain, were appreciably inhibited”. The “effect of 5 mg/mL human AAG on antiviral activity” value [8] was “further reduced the activity”, the EC50 [8] was 30 nM and the “intracellular concentrations in VeroE6 cells” value (VeroE6 cells) was “higher than those of nirmatrelvir”.

Molecule Cn1cnc(Cn2c(=O)[nH]/c(=N\c3cc4cn(C)nc4cc3Cl)n(Cc3cc(F)c(F)cc3F)c2=O)n1 [Ensitrelvir, reference compound] has an EC50 (SARS-CoV-2^WK-521 [1]; [12]) of 30 nM and a CC50 (in vitro) greater than 100000 nM.

CC(C)(C)[C@H](NC(=O)C(F)(F)F)C(=O)N1C[C@H]2[C@@H]([C@H]1C(=O)N[C@H](C#N)C[C@@H]1CCNC1=O)C2(C)C [Nirmatrelvir, reference compound] showed an EC50 (SARS-CoV-2^WK-521 [1]; [11]) of 1140 ± 190 nM, an EC50 (SARS-CoV-2^WK-521 [1]; [12]) of 20 ± 10 nM and an EC50 (SARS-CoV-2^WK-521 [1]; [9]) of 770 ± 180 nM. For the same molecule, the EC50 (SARS-CoV-2^WK-521 [1]; [10]) was 36.3 nM, the CC50 (in vitro) was greater than 100000 nM and the EC50 (SARS-CoV-2^BQ.1.1) was 51 ± 16 nM. The EC50 [4] was 11100 nM, the EC50 (SARS-CoV-2^WK-521 [5]) was 20 nM and the half-life (in vivo [6]) was 1.43 h. The “effect of 5 mg/mL human AAG on antiviral activity” value [8] was “further reduced the activity” and the EC50 [8] was 160 nM.

With Nc1ccc2cc3ccccc3cc2c1 [Compound 2AA, 2-Aminoanthracene] the “Number of colonies / plate” value (TA1535; Salmonella typhimurium) was 15.3 ± 1.2 colonies / plate and the “Number of colonies / plate” value (WP2 uvrA) was 49.0± 7.9 colonies / plate.

In the case of Nirmatrelvir + Ritonavir, the “Lungs Virus titer” value (SARS-CoV-2^XBB1.5) is reported as 5.2 Log10(PFU/g) and the “Nasal turbinates Virus titer” value (SARS-CoV-2^XBB1.5) is reported as 2.4 Log10(PFU/g).

Molecule CC(C)C(=O)OC[C@H]1O[C@@H](n2ccc(NO)nc2=O)[C@H](O)[C@@H]1O [molnupiravir, reference compound] has an EC50 (SARS-CoV-2^WK-521 [1]; [12]) of 840 nM.

CC(C)(C)[C@H](NC(=O)C(F)(F)F)C(=O)N1C[C@H]2[C@@H]([C@H]1C(=O)N[C@@H](C[C@@H]1CCNC1=O)C(=O)c1nc3cccc(F)c3s1)C2(C)C [TKB252] showed an EC50 (SARS-CoV-2^WK-521 [1]; [9]) of 62 ± 26 nM, an IC50 (SARS-CoV-2 M^pro) of 200 ± 50 nM and a CC50 at 3 days (in vitro) greater than 100000 nM. The EC50 (SARS-CoV-2^BQ.1.1) was 57 ± 23 nM.

With NC(=O)C(=Cc1ccc([N+](=O)[O-])o1)c1ccco1 [AF-2, 2-(2-Furyl)-3-(5-nitro-2-furyl)acrylamide] the “Number of colonies / plate” value (TA98) was 22.7 ± 3.1 colonies / plate, the “Number of colonies / plate” value (WP2 uvrA) was 10.7± 3.1 colonies / plate and the “Number of colonies / plate” value (TA100) was 29.0 ± 4. colonies / plate.

For [N-]=[N+]=[N-].[Na+] [NaN3, SodiumAzide], the “Number of colonies / plate” value (TA1535) was 29.3 ± 9.1 colonies / plate.
